Results published in US20170334941A1, “2',2'-DIHALO NUCLEOSIDE ANALOGS FOR TREATMENT OF THE FLAVIVIRIDAE FAMILY OF VIRUSES AND CANCER” (COCRYSTAL PHARMA, INC., priority 2014, published 2017).
pEC50: −log10 of the molar value. Read-outs that look alike come from different tables or passages of the source.

Experiments:
[1] = test system: human PBM cells; assay: Cellular toxicity assay in human PBM cells; type: cell-based; conditions: Human PBM cells
Experimental: (§1) The toxicity of the compounds was assessed in Vero, human PBM, CEM (human lymphoblastoid), MT-2, and HepG2 cells, as described previously (see Schinazi R. F., Sommadossi J.-P., Saalmann V., Cannon D. L., Xie M.-Y., Hart G. C., Smith G. A. & Hahn E. F. Antimicrob. Agents Chemother. 1990, 34, 1061-67). Cycloheximide was included as positive cytotoxic control, and untreated cells exposed to solvent were included as negative controls. The cytotoxicity IC50 was obtained from the concentration-response curve using the median effective method described previously (see Chou T.-C. & Talalay P. Adv. Enzyme Regul. 1984, 22, 27-55; Belen'kii M. S. & Schinazi R. F. Antiviral Res. 1994, 25, 1-11).

[2] = test system: CEM (human lymphoblastoid) cells; assay: Cellular toxicity assay in CEM cells; type: cell-based
Experimental: as §1

[3] = test system: Vero cells; assay: Cellular toxicity assay in Vero cells; type: cell-based
Experimental: as §1

[4] = Cellular toxicity assay in human PBM cells; type: cell-based; conditions: read-out: Cytotoxicity, CC50
Experimental: as §1

[5] = Cellular toxicity assay in CEM cells; type: cell-based, human; conditions: human, read-out: Cytotoxicity, CC50
Experimental: as §1

[6] = Cellular toxicity assay in Vero cells; type: cell-based; conditions: African green monkey, read-out: Cytotoxicity, CC50
Experimental: as §1

[7] = test system: HCV GT 1b replicon (Huh-7 cells); assay: HCV replicon assay; type: cell-based; conditions: Hepatitis C virus, GT1B
Experimental: (§2) The HCV replicon assay was carried out as described in Stuyver L et al., Ribonucleoside analogue that blocks replication or bovine viral diarrhea and hepatitis C viruses in culture. Antimicrob. Agents Chemother. 2003, 47, 244-254. Huh 7 Clone B cells containing HCV Replicon RNA were seeded in a 96-well plate at 5000 cells/well, and the compounds tested at 10 μM in triplicate immediately after seeding. Following five days incubation (37° C., 5% CO2), total cellular RNA was isolated by using versaGene RNA purification kit from Gentra. Replicon RNA and an internal control (TaqMan rRNA control reagents, Applied Biosystems) were amplified in a single step multiplex Real Time RT-PCR Assay. The antiviral effectiveness of the compounds was calculated by subtracting the threshold RT-PCR cycle of the test compound from the threshold RT-PCR cycle of the no-drug control (ΔCt HCV). A ACt of 3.3 equals a 1-log reduction (equal to 90% less starting material) in Replicon RNA levels. The cytotoxicity of the compounds was also calculated by using the ΔCt rRNA values. 2′-C-Me-C was used as the positive control. To determine EC90 and IC50 values (using methods described in Reed I J & Muench H, A simple method or estimating fifty percent endpoints. Am. J. Hyg. 27: 497, 1938), ΔCt: values were first converted into fraction of starting material (Applied Biosystems Handbook) and then were used to calculate the % inhibition.

[8] = Cytotoxicity in HCV replicon assay (ΔCt rRNA); type: cell-based; conditions: human, Huh-7 Clone B cells containing HCV GT 1b replicon RNA, Huh-7 cells
Experimental: as §2, with “To determine EC90 and IC50 values (using methods described in Reed I J & Muench H, A simple method or estimating fifty percent endpoints. Am. J. Hyg. 27: 497, 1938), ΔCt: values were first converted into fraction of starting material (Applied Biosystems Handbook) and then were used to calculate the % inhibition.” left out

| SMILES | % inhibition at maximum concentration evaluated [1] [%] | CC50 ([1]; read-out: Cytotoxicity, CC50) [µM] | % inhibition at maximum concentration evaluated [2] | CC50 ([2]; read-out: Cytotoxicity, CC50) [µM] | % inhibition at maximum concentration evaluated [3] [%] | CC50 ([3]; read-out: Cytotoxicity, CC50) [µM] | CC50 ([4]; Human PBM cells) [µM] | CC50 [5] [µM] | CC50 [6] [µM] | CC50 ([4]; human, human PBM cells) [µM] | pEC50 ([7]; HCV GT 1b replicon, Huh-7 cells, read-out: EC50) | EC90 ([7]; HCV GT 1b replicon, Huh-7 cells, read-out: EC90) [µM] | CC50 ([5]; CEM lymphoblastoid cells) [µM] | CC50 at 5 days [8] [µM] | pEC50 ([7]; Huh-7) | EC90 ([7]; Huh-7) [µM] |
| --- | --- | --- | --- | --- | --- | --- | --- | --- | --- | --- | --- | --- | --- | --- | --- | --- |
| O=c1ccn(C2OC(CO)C(O)C2(Cl)Cl)c(=O)[nH]1 (centres unmarked) [Compound 17] | −11 | > 100 | −1.9% | > 100 | 1.4 | > 100 |  |  |  |  |  |  |  |  |  |  |
| CC(C)OC(=O)[C@H](C)NP(=O)(OC[C@H]1O[C@@H](n2ccc(=O)[nH]c2=O)C(Cl)(Cl)[C@@H]1O)Oc1ccccc1 (stereo partly drawn) [Compound 18, (2S)-isopropyl 2-(((((2R,3R,5R)-4,4-dichloro-5-(2,4-dioxo-3,4-dihydropyrimidin-1(2H)-yl)-3-hydroxytetrahydrofuran-2-yl)methoxy)(phenoxy)phosphoryl)amino)propanoate] | 25 |  | 17% |  | 2.3 |  | > 100 | > 100 | > 100 |  |  |  |  |  |  |  |
| Nc1ccn([C@@H]2O[C@H](CO)[C@@H](O)C2(Cl)Cl)c(=O)n1 [Compound 22, 4-amino-1-((2R,4R,5R)-3,3-dichloro-4-hydroxy-5-(hydroxymethyl)tetrahydrofuran-2-yl)pyrimidin-2(1H)-one] | 82 |  | 87% |  | 101 |  |  |  | < 1 | < 1 | < 5.00 | > 10 | < 1 | > 10 |  |  |
| CC(C)OC(=O)[C@H](C)NP(=O)(OC[C@H]1O[C@@H](n2ccc(N)nc2=O)C(Cl)(Cl)[C@@H]1O)Oc1ccccc1 (stereo partly drawn) [Compound 23, (2S)-isopropyl 2-(((((2R,3R,5R)-5-(4-amino-2-oxopyrimidin-1(2H)-yl)-4,4-dichloro-3-hydroxytetrahydrofuran-2-yl)methoxy)(phenoxy)phosphoryl)amino)propanoate] | 91 |  | (−86 @ 100) % |  | 101 |  | < 1 |  | < 1 |  |  |  |  | > 10 | 6.00 to 7.00 | 0.1 to 1 |
